Measurements published in patent US20090197955A1, “METHODS OF IMPROVING DHA DEPOSITION AND RELATED FUNCTION AND/OR DEVELOPMENT” (Monsanto Company, priority 2008, published 2009).

Assay: Fatty acid composition of pig tissues (ham, loin, belly, skin) after feeding SDA ethyl ester diets, 35 day study
Format: in vivo, pigs
Conditions: 35 days
Protocol: A 35 day study was conducted to determine whether pigs fed a diet containing SDA could enhance tissues with improved fatty acid profiles including increased levels of SDA, EPA, and DHA.
Four test diets (Treatment 2, 3, 4, and 5) with SDA ethyl ester substituted for corn oil to provide 0.2, 0.4, 0.6 and 0.8% (w/w SDA active ingredient, as-is basis) were fed ad libitum to one pen of four pigs throughout the 35-day test period Table 4). All diets were fed in meal form. Treatment 6 was fed the same diet as Treatment 5, but for a duration of only 21 days.
All pigs were individually weighed at initiation of the acclimation and test period, and immediately prior to slaughter. Feed consumption per pen was recorded. Upon completion of the feeding period, pigs were slaughtered for tissue collection and carcass evaluation. Pigs were slaughtered using standard industry practices (electrical stunning, exsanguinations, scalding, dehairing and evisceration). Live weights prior to slaughter and hot carcass weights were recorded. The left side of each carcass was fabricated and samples were obtained from the loin (longissimus muscle), ham (semimembranosus muscle) and belly (a section from the center of the belly) for sensory evaluation, fatty acid, and proximate analysis. Prior to removing the sample for sensory and fatty and proximate analysis from the belly the firmness of the belly was evaluated using a flop test. At 24 hr postmortem fat thickness (10th rib), loin eye area (10th rib), visual color, firmness and marbling, Minolta color (L*a*b*), pH, and drip loss were measured.
In order to evaluate the fatty acid composition of pig tissues (loin, ham, skin, and belly), samples were stored at −80° C. until evaluation. After thawing, ˜22 g of fresh pig tissue was chopped into small pieces and thoroughly mixed before 10 g was sub sampled and lyophilized. Lyophilized samples were ground in 30 ml Sarstedt tubes with two ball bearings using a Mega Grinder. Ground samples (loin and ham: 50 mg; skin: 100 mg; belly: 150 mg; diet: 500 mg) were directly methylated with sulfuric acid in methanol (loin and ham: 1 mL; skin: 3 mL; belly: 10 mL; diet: 1.5 mL) sealed in the presence of butylated hydroxytoluene (50 mg BHT in 100 ml reagent) in reflux conditions of 90° C. Resultant fatty acid methyl esters (FAME's) were separated by capillary gas chromatography (GC) and detected by flame ionization detector (FID). The column used was a Supelco Omegawax 250 capillary column with dimensions of 30 m×0.25 mm×0.25 μm film thickness. The run time was 32 minutes. Peaks were identified based on their relative retention time compared to a FAME reference mixture. Quantification was achieved by using an internal standard (c15:0 triacylglyceride (TAG) for pig tissue samples and c17:0 TAG for diet samples). Results are reported as FA g/100 g fat with theoretical response correction.
For Table 6 below, each value represents g/100 g total fatty acids a mean of 4 samples (1 sample from each of 4 pigs) per treatment.

SMILES: CC/C=C\C/C=C\C/C=C\C/C=C\CCCCC(=O)O [SDA, stearidonic acid]
- 24:1 n-9, ham (0.4% SDA feed): 0.05 g FA per 100 g fat
- Total PUFA, ham (0.4% SDA feed): 13.34 g FA per 100 g fat
- Total monoenes, ham (0.4% SDA feed): 48.71 g FA per 100 g fat
- Total n-3, ham (0.4% SDA feed): 1.23 g FA per 100 g fat
- Total n-6, ham (0.4% SDA feed): 12.11 g FA per 100 g fat
- Total saturates, ham (0.4% SDA feed): 33.55 g FA per 100 g fat
- n-6/n-3, ham (0.4% SDA feed): 9.85
- 12:0, ham (0.6% SDA feed): 0.06 g FA per 100 g fat
- 14:0, ham (0.6% SDA feed): 1.05 g FA per 100 g fat
- 16:0, ham (0.6% SDA feed): 21.49 g FA per 100 g fat
- 16:1 n-7, ham (0.6% SDA feed): 3.03 g FA per 100 g fat
- 16:1 n-9, ham (0.6% SDA feed): 0.26 g FA per 100 g fat
- 18:0, ham (0.6% SDA feed): 11.47 g FA per 100 g fat
- 18:1 n-7, ham (0.6% SDA feed): 4.08 g FA per 100 g fat
- 18:1 n-9, ham (0.6% SDA feed): 37.64 g FA per 100 g fat
- 18:2 n-6 (LA), ham (0.6% SDA feed): 9.92 g FA per 100 g fat
- 18:3 n-3 (ALA), ham (0.6% SDA feed): 0.22 g FA per 100 g fat
- 18:3 n-6 (GLA), ham (0.6% SDA feed): 0.14 g FA per 100 g fat
- 18:4 n-3 (SDA), ham (0.6% SDA feed): 0.16 g FA per 100 g fat
- 20:0, ham (0.6% SDA feed): 0.16 g FA per 100 g fat
- 20:1 n-7, ham (0.6% SDA feed): 0.04 g FA per 100 g fat
- 20:1 n-9, ham (0.6% SDA feed): 0.59 g FA per 100 g fat
- 20:1 n-11, ham (0.6% SDA feed): 0.03 g FA per 100 g fat
- 20:2 n-6, ham (0.6% SDA feed): 0.28 g FA per 100 g fat
- 20:3 n-3, ham (0.6% SDA feed): 0.04 g FA per 100 g fat
- 20:3 n-6 (DGLA), ham (0.6% SDA feed): 0.43 g FA per 100 g fat
- 20:4 n-3 (ETA), ham (0.6% SDA feed): 0.26 g FA per 100 g fat
- 20:4 n-6 (AA), ham (0.6% SDA feed): 2.60 g FA per 100 g fat
- 20:5 n-3 (EPA), ham (0.6% SDA feed): 0.54 g FA per 100 g fat
- 22:0, ham (0.6% SDA feed): 0.07 g FA per 100 g fat
- 22:1 n-9, ham (0.6% SDA feed): 0.00 g FA per 100 g fat
- 22:1 n-11, ham (0.6% SDA feed): 0.00 g FA per 100 g fat
- 22:1 n-13, ham (0.6% SDA feed): 0.00 g FA per 100 g fat
- 22:2 n-7, ham (0.6% SDA feed): 0.00 g FA per 100 g fat
- 22:3 n-6, ham (0.6% SDA feed): 0.24 g FA per 100 g fat
- 22:5 n-3 (DPA), ham (0.6% SDA feed): 0.67 g FA per 100 g fat
- 22:6 n-3 (DHA), ham (0.6% SDA feed): 0.10 g FA per 100 g fat
- 24:1 n-9, ham (0.6% SDA feed): 0.06 g FA per 100 g fat
- Total PUFA, ham (0.6% SDA feed): 15.59 g FA per 100 g fat
- Total monoenes, ham (0.6% SDA feed): 45.72 g FA per 100 g fat
- Total n-3, ham (0.6% SDA feed): 1.99 g FA per 100 g fat
- Total n-6, ham (0.6% SDA feed): 13.60 g FA per 100 g fat
- Total saturates, ham (0.6% SDA feed): 34.30 g FA per 100 g fat
- n-6/n-3, ham (0.6% SDA feed): 6.83
- 12:0, ham (0.8% SDA feed): 0.05 g FA per 100 g fat
- 14:0, ham (0.8% SDA feed): 0.96 g FA per 100 g fat
- 16:0, ham (0.8% SDA feed): 20.70 g FA per 100 g fat
- 16:1 n-7, ham (0.8% SDA feed): 2.90 g FA per 100 g fat
- 16:1 n-9, ham (0.8% SDA feed): 0.53 g FA per 100 g fat
- 18:0, ham (0.8% SDA feed): 11.25 g FA per 100 g fat
- 18:1 n-7, ham (0.8% SDA feed): 4.27 g FA per 100 g fat
- 18:1 n-9, ham (0.8% SDA feed): 35.19 g FA per 100 g fat
- 18:2 n-6 (LA), ham (0.8% SDA feed): 11.90 g FA per 100 g fat
- 18:3 n-3 (ALA), ham (0.8% SDA feed): 0.25 g FA per 100 g fat
- 18:3 n-6 (GLA), ham (0.8% SDA feed): 0.21 g FA per 100 g fat
- 18:4 n-3 (SDA), ham (0.8% SDA feed): 0.24 g FA per 100 g fat
- 20:0, ham (0.8% SDA feed): 0.13 g FA per 100 g fat
- 20:1 n-7, ham (0.8% SDA feed): 0.04 g FA per 100 g fat
- 20:1 n-9, ham (0.8% SDA feed): 0.52 g FA per 100 g fat
- 20:1 n-11, ham (0.8% SDA feed): 0.03 g FA per 100 g fat
- 20:2 n-6, ham (0.8% SDA feed): 0.27 g FA per 100 g fat
- 20:3 n-3, ham (0.8% SDA feed): 0.03 g FA per 100 g fat
- 20:3 n-6 (DGLA), ham (0.8% SDA feed): 0.50 g FA per 100 g fat
- 20:4 n-3 (ETA), ham (0.8% SDA feed): 0.29 g FA per 100 g fat
- 20:4 n-6 (AA), ham (0.8% SDA feed): 3.12 g FA per 100 g fat
- 20:5 n-3 (EPA), ham (0.8% SDA feed): 0.87 g FA per 100 g fat
- 22:0, ham (0.8% SDA feed): 0.10 g FA per 100 g fat
- 22:1 n-9, ham (0.8% SDA feed): 0.00 g FA per 100 g fat
- 22:1 n-11, ham (0.8% SDA feed): 0.00 g FA per 100 g fat
- 22:1 n-13, ham (0.8% SDA feed): 0.00 g FA per 100 g fat
- 22:2 n-7, ham (0.8% SDA feed): 0.00 g FA per 100 g fat
